# pIC50: −log10 of the molar value.
# Target: Apoptosis regulator Bcl-2 (Homo sapiens, UniProt P10415)
# Assay: Bcl-2 Competition Binding (Fluorescence Polarization) Assay: The fluorescence-labeled 23 amino acid peptide BH3 was purchased from CalBiochem ([…], SEQ ID NO: 1). An unbound Fluorescein labeled BH3 peptide emits random light with respect to the plane of polarization plane of excited light, resulting in a lower polarization degree (mP) value. When the peptide is bound to Bcl-2, the complex tumble slower and the emitted light can have a higher level of polarization, resulting in a higher mP value. This binding assay was performed in 96-well plate and with each assay contained 15 and 30 nM of labeled peptide and purified Bcl-2 protein (purchased from R&D Systems, Inc). The assay buffer contained 20 mM Hepes (pH 7.0), 50 mM KCl, 5 mM MgCl2, 20 mM Na2MoO4, 0.1 mg/ml Bovine Gamma Globulin and 0.01% NP40. Compounds were diluted in DMSO and added to the final assay with concentration range from 20 uM to 2 nM. The polarization degree (mP) value was determined by BioTek Synergy II with background subtraction after 3 hours of incubation at room temperature. IC50 was calculated using Prism software with sigmoidal dose-response curve fitting. ABT-737 was used as reference compound. Such assays, carried out with a range of doses of test compounds, allow the determination of an approximate IC50 value.
# Apoptosis regulator Bcl-2, sequence (P10415 whole entry): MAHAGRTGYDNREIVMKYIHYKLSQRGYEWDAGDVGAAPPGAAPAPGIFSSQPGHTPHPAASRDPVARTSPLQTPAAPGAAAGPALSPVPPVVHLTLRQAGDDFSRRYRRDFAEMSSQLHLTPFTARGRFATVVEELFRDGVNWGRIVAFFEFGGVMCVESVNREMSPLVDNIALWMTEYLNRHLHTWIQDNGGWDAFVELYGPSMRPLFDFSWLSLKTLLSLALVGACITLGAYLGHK
row,pIC50,Structure (SMILES)
1,> 8.00,CC1(C)CCC(CN2CCN(c3ccc(C(=O)NS(=O)(=O)c4ccc(NC5CCN(C6CCOCC6)CC5)c([N+](=O)[O-])c4)c(-n4ncc5nc6[nH]ccc6cc54)c3)CC2)=C(c2ccc(Cl)cc2)C1
2,> 8.00,CN1CCC(F)(COc2ccc(S(=O)(=O)NC(=O)c3ccc(N4CCN(CC5=C(c6ccc(Cl)cc6)CC(C)(C)CC5)CC4)cc3-n3ncc4nc5[nH]ccc5cc43)cc2[N+](=O)[O-])CC1
3,> 8.00,CC1(C)CCC(CN2CCN(c3ccc(C(=O)NS(=O)(=O)c4ccc(NCCCN5CCOCC5)c([N+](=O)[O-])c4)c(-n4ncc5nc6[nH]ccc6cc54)c3)CC2)=C(c2ccc(Cl)cc2)C1

# From ChEMBL document CHEMBL5727360, “BCL-2 inhibitors” (2019)
